The results in this text go back to the NIST ThermoML archive (doi:10.1016/j.tca.2016.11.011).

“And” between values parts separate entries of the source, which are not always exact repeats. Equal entries are not always repeated. ± gives the expanded uncertainty stated by the source.

The conditions of the data set: DSC. On the technique in general: In DSC, transitions show as peaks or steps in heat flow.
As for `COC(=O)C1=C(C)NC(C)=C(C(=O)OC)C1c1ccccc1[N+](=O)[O-]`, the Glass transition temperature was 44.5 ± 1 °C and 42.2 ± 1 °C.

With `O[C@@H]1[C@@H](O)[C@@H]2OC[C@@H](O2)[C@H]1O` [1,6-anhydro-β-D-glucopyranose], the Glass transition temperature was -24.7 ± 1 °C and -26.5 ± 1 °C.

For `CC(=O)Nc1ccc(O)cc1` [N-acetyl-p-aminophenol], the Glass transition temperature was 24 ± 1 °C and 21.7 ± 1 °C.
